Patent US12029715B2, “Precursor compounds for providing retinoids of the vitamin A5 pathway and uses thereof” (UNIVERSITY OF DEBRECEN, priority 2015, dated 2024)
Entries after “also recorded” stand apart in the source; their conditions may differ.

Legend:
[1] = after column chromatography
[2] = test system: human oligodendrocytes cell cultures; assay: Metabolic conversion in human oligodendrocytes cell culture (HPLC-MS); type: in vitro ADME
Protocol: (§1) In a slight variant of the method, after reaching confluency of 80% cells were treated with 9CDHROL, 9CDH-retinyl ester (acetate, 9CDHROL-ES), 9CDHRA, 9CDH-retinoyl ester, (ethyl ester, 9CDHRA-ES), ATROL, 9CDHBC, 9CBC and ATBC at a concentration of 10^−6 M or ethanol at corresponding concentration was used as control vehicle treatment. Cells were harvested 18 hours later, centrifuged, weighted, frozen in liquid nitrogen and stored at −80° C. until analyses.
(§2) High performance liquid chromatography mass spectrometry (LC-MS) was carried out as described in Example 4.
9CDHRA levels including standard deviation in human oligodendrocytes cultures were assessed using HPLC-MS analysis after control treatment using ethanol (CTRL), as well as ATROL treatment (ATROL), 9CBC treatments (9CBC), ATBC treatments (ATBC), 9CDHBC treatment (9CDHBC), 9CDHROL treatments (9CDHROL), 9CDHROL-ester treatments (9CDHROL-ES), 9CDHRA treatments (9CDHRA) or 9CDHRA-ester treatments (9CDHRA-ES), each with 10^−6M concentration and n=3 (FIG. 14D).

C57BL/6N mice [3] = assay: Chronic social defeat stress model, sucrose preference test; type: in vivo, mouse; details: stressed mice, 10 mg/kg i.p. every second day of stress protocol; 10 mg/kg
Description: This task, designed to measure hedonic behaviors in mice is based on the palatable nature of sucrose observed in a number of mouse strains. On the first day of the test, sucrose-naive mice were placed in individual cages at 11 am and left there with water and food for habituation period. At 5 pm one water bottle was replaced with two bottles: one containing water and another 0.8% sucrose solution. Three hours later (8 pm) the bottles were weighed to measure liquid consumption and were replaced in cages until morning. The measures of an overnight consumption were then carried out for additional day to evaluate sucrose preference. Mice were not water deprived at any moment, in order to measure spontaneous sucrose preference and exclude any potential emotional confounds induced by stress of water deprivation. The sucrose preference was expressed as the percent of sucrose solution consumed with respect to total liquid consumption.
(§3) Social defeat stress procedure was a modified version of the protocol previously described (Berton, McClung et al. 2006). C57BL/6N mice were defeated chronically for 10 consecutive days. Every day they were exposed to the physical contact with an unfamiliar CD1 aggressor in its home cage for maximal interaction time of 5 minutes. After each session of physical stress, C57BL/6N and CD1 mice were separated by a perforated wall and maintained in sensory contact for 24 h. After the last session of stress, mice were transferred into new cages and housed separately throughout the behavioral tests period. C57BL/6N control mice, similarly to the experimental animals, were housed two per cage separated by a metal perforated wall. Every day, they were exposed to the physical contact for 5 minutes.
For behavioral analysis, 9CDHROL and 9CDHBC were dissolved in ethanol, and then mixed with sunflower oil, so that the final solution contained 3% ethanol. Vehicle treatments consisted of 3% ethanol solution in sunflower oil. For memory studies treatments with 9CDHRA were administered by intraperitoneal injections at volume/weight ratio 3 ml/kg at 7 am and 7 hours before the beginning of testing. For tests with animal model of chronic social defeat, different treatments were administered […] day of stress protocol immediately after the stress session starting from day 1 of the stress protocol.
This task, designed to measure hedonic behavior in mice (Moreau, 1997), is based on the palatable nature of sucrose observed in a number of mouse strains. On the first day of the test, sucrose-naive mice were placed in individual cages at 11 am and left there with water and food for habituation period. At 5 pm one water bottle was replaced with two bottles: one containing water and another 0.8% sucrose solution. Three hours later (8 pm) the bottles were weighed to measure liquid consumption and were replaced in cages until morning. The measures of an overnight consumption were then carried out for additional day to evaluate sucrose preference. Mice were not water deprived at any moment, in order to measure spontaneous sucrose preference and exclude any potential emotional confounds induced by stress of water deprivation. The sucrose preference was expressed as the percent of sucrose solution consumed with respect to total liquid consumption.
Social defeat stress procedure was a modified version of the protocol previously described (Berton et al. 2006). C57BL/6N mice were defeated chronically for 10 consecutive days. […]

C57BL/6N mice [4] = assay: Chronic social defeat stress model, forced swim test; type: in vivo, mouse; details: stressed mice, 10 mg/kg i.p. every second day of stress protocol; 10 mg/kg
Protocol: (§4) The forced swim paradigm was carried out between 1 pm and 4 pm in a 3-litre glass beaker half-filled with water at 22-23° C. (the water depth was 17 cm). All mice were tested only once in this task. To this end, each mouse was lowered gently into the water and the time of immobility was scored during a 6-minute testing period. The mouse was judged immobile when it floated in an upright position and made only small movements to keep its head above the water. After 6 min, the mouse was taken out of the water, left to dry under a red light lamp and returned to its home cage. The immobility scores of each animal were used as an index of despair behavior.
as §3
For behavioral analysis, 9CDHROL and 9CDHBC were dissolved in ethanol, and then mixed with sunflower oil, so that the final solution contained 3% ethanol. Vehicle treatments consisted of 3% ethanol solution in sunflower oil. For memory studies treatments with 9CDHRA were administered by intraperitoneal injections at volume/weight ratio 3 ml/kg at 7 am and 7 hours before the beginning of testing. For tests with animal model of chronic social defeat, different treatments were administered by intraperitoneal injections at volume/weight ratio 3 ml/kg at 10 mg/kg for each substance between 5-6 pm every second day of stress protocol immediately after the stress session starting from day 1 of the stress protocol.
as §4, with “paradigm (Dalvi and Lucki, 1999)” for “paradigm”, “2-litre” for “3-litre”
as §3, with “(Berton” for “(Berton, McClung”, “C57BL/6N control mice, similarly to the experimental animals, were housed two per cage separated by a metal perforated wall. Every day, they were exposed to the physical contact for 5 minutes.” left out

[5] = Mouse oral supplementation, retinoid levels in serum, brain and liver (LC-MS); type: in vivo; details: mice
Protocol: For metabolic analyses ATROL, 9CDHROL, 9CDHBC and control solutions were prepared as described above. Single per os application of the dose of 40 mg/kg of each substance was used to treat mice in the evening and samples were collected 11 h later in the light protected conditions, weighted, frozen in liquid nitrogen and stored at −80° C. until analyses. Serum was prepared and immediately stored in brown vials at −80° C., till further analysis.
Accordingly, for sample preparation 100 mg of the material (if samples were under 100 mg, water was added up to the used standard weight: 100 mg) or 100 μl serum was diluted with a threefold volume of isopropanol, the tissues were minced by scissors, vortexed for 10 seconds, put in a ultrasonic bath for 5 minutes, shaken for 6 minutes and centrifuged at 13000 rpm in a Heraeus BIOFUGE Fresco at +4° C. […] The dried extracts were resuspended with 30 μl of methanol—MTBE (50-50) and transferred into the autosampler and 10 μl subsequently analysed.
Mouse brain samples were prepared according to the procedure described above. Briefly, after single per os application of the dose of 40 mg/kg of 9CDHROL (or other cited substances) in the evening mice were sacrificed after 11 hours and tissues samples including brain were dissected under light-protection conditions, weighted, frozen in liquid nitrogen and stored at −80° C. until analyses. Serum was prepared and immediately stored in brown vials at −80° C., till further analysis.
For mouse supplementation experiments we treated n=6 mice per os with 40 mg/kg bw 9CDHROL and 11 h after the treatment the mice were killed and blood, brain and liver was taken. After centrifugation of the drawn blood, serum was obtained.

[6] = test system: oligodendrocytes cell line 158N; assay: Metabolic conversion in mouse oligodendrocytes cell culture (LC-MS); type: in vitro ADME
Protocol: Normal immortalized oligodendrocytes cell line 158N was cultured as previously reported (Feutz et al., 2001). Expediently, cells were cultured in supplemented with 5% calf serum (Invitrogen, France). When cells attained 70% of confluency they were treated with 10^−2 M ethanol solution of one of the following compounds: 9CDHROL, 9CDHROL-acetate, 9CDHRA-ethyl ester. 9CDHRA and ethanol as controls, vehicle treatment. 18 h after treatment cells were collected in amber Eppendorf tubes and stored at −80° C. until analyses. Treatments and cell collection were carried out in light limited conditions to avoid photolysis of retinoids.
as §1, §2

[7] = per os 40 mg/kg, 11 h after treatment

SMILES: CC1=C(/C=C/C(C)=C\C=C\[C@H](C)C/C=C/C=C(C)/C=C/C=C(C)/C=C/C2=C(C)CCCC2(C)C)C(C)(C)CCC1 (stereo in doubt) [9CDHBC, (R)-9-cis-13,14-Dihydro-β,β-carotene]
- stability of the isolated product [1]: very unstable and easily degraded
- 9CDHRA levels in cells after treatment (metabolism / accumulation) ([2]; 10^−6M, n=3): not converted to 9CDHRA
- precursor substrate of 9CDHROL ([2]; in vitro): excellent precursor substrates
- sucrose preference (anhedonia) (C57BL/6N mice [3]): prevented; also recorded: Anhedonia was abolished
- immobility time in the forced swim test (C57BL/6N mice [4]): decreased such immobility; also recorded: efficiently normalised immobility time
- ATROL levels in mouse organs after treatment ([5]; oral gavage 40 mg/kg): no metabolic conversion
- 9CDHRA levels in serum, brain and liver after treatment (conversion to 9CDHRA) [5, 7]: moderate but significant increase
- 9CDHROL levels in serum, brain and liver after treatment [5, 7]: did not increase
- ATROL levels in cells after treatment ([6]; 10^−6M): a low conversion or induced increase
- 9CDHROL levels in cells after treatment ([6]; 10^−6 M, 18 hours): increases; also recorded: moderately
- 9CBC in cells after treatment ([6]; 411 nm detection, retention time 26.1 min): no 9CBC could be detected
- 9CDHBC peak in cells after treatment ([6]; UV detection at 366 nm, retention time 25.1 min): even higher peak was conclusively detected
- conversion to 9CDHRA ([6]; data not shown): not converted to 9CDHRA
